Test [1] deals with Peroxisome proliferator-activated receptor gamma/Nuclear receptor coactivator 1 (Homo sapiens, UniProt P37231). The class given is functional.
The target of test [2] is Peroxisome proliferator-activated receptor gamma/Nuclear receptor coactivator 3 (Homo sapiens, UniProt P37231). It is filed as functional.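 Further: agonist potency for raising coactivator recruitment to the receptor.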
The target in test [3] is Peroxisome proliferator-activated receptor gamma/Nuclear receptor coactivator 2 (Homo sapiens, UniProt P37231). It is filed as functional.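 Further: agonist potency for raising coactivator recruitment to the receptor.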
A short description of test [4]: enhancers of respiration in Yfh1-depleted yeast, dose response, Friedreich's ataxia, plus single-dose screen (AID 1465).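 Further: yeast depleted of Yfh1p frataxin homolog grown on glycerol needing respiration; WST-1 tetrazolium dye reduction as measure of cellular dehydrogenase metabolic activity.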 The class given is functional.
The target of a further test is Steroidogenic factor 1 (Homo sapiens, UniProt Q13285). Kind of test: Counterscreen for inverse agonists of the liver receptor homolog-1 (LRH-1; NR5A2): Luminescence-based cell-based high throughput dose response assay to identify inverse agonists of the Steroidogenic Factor 1 Nuclear Receptor (SF1; NR5A1). It is filed as functional. (The purpose of a counterscreen is to sort out artefacts and off-target activity.)

Test [5] can be described thus: StAR promoter reporter inhibition counter-screen, dose response, counter-screen for LRH-1 inverse agonist project, cell-based, luminescence, luciferase reporter (AID 651969). The class given is functional.
The target of test [6] is Nuclear receptor subfamily 5 group A member 2 (Homo sapiens, UniProt O00482). It is filed as functional, cell-based.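 Further: HEK293T cells transfected with LRH-1 and a StAR promoter luciferase reporter; potency for inhibitors that lower LRH-1 driven reporter light.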
A short description of test [7]: cells. It is filed as functional, cell-based.
Test [8] concerns the target Induced myeloid leukemia cell differentiation protein Mcl-1 (Homo sapiens, UniProt Q07820). In words: MCL1-BIM BH3 interaction inhibitors, dose response, biochemical, fluorescence polarization, BIM-BH3 peptide, 1536-well (AID 2217).
In test [9] the target is Latent membrane protein 1 (Human herpesvirus 4 (strain B95-8), UniProt P03230). Kind of test: TES1-eGFP NF-kB reporter inhibition versus Tet-On dsRED, dose response, selectivity assay for LMP1 NF-kB inhibitor project, imaging, HEK293T, dual-color eGFP/dsRED, cherry-picks (AID 588398). The class given is functional, cell-based.
Another test concerns the target Bcl-2-like protein 1 (Homo sapiens, UniProt Q07817). Kind of test: BCL-XL inhibitors, dose response, selectivity assay for MCL1 inhibitor project, biochemical, fluorescence polarization, 1536-well (AID 2218). Background: Polarisation of emitted light reports the rotation of a fluorescent probe.
Another test concerns HEK293. Kind of test: inhibitors of LMP1-driven NF-kB reporter, dose response, cell-based, HEK293, luciferase, cherry-pick (AID 588343). It is filed as functional. Particulars: Homo sapiens.
The nature of test [10]: inhibitors of intracellular T. cruzi replication, confirmation, NIH3T3 host cells, beta-gal luminescence (AID 2044).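 Further: intracellular parasites grown in NIH/3T3 mouse fibroblasts as host cells; luminescent beta-galactosidase reporter signal from transgenic T. cruzi replicating inside host cells; inhibitors lower the luminescence signal.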 The class given is functional, cell-based.
The nature of test [11]: cells. It is filed as functional, cell-based. This is another data set of the same source.
Test [12] in a line: cytotoxicity toward NIH3T3 fibroblasts, dose response, counter-screen, cell-based, ATP luminescence, mouse fibroblasts (AID 2010).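 Further: cells exposed to compound for about 90 hours before reading.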 The class given is functional.
For test [13], the system named is BJ. In words: cytotoxicity toward Ras-transformed BJeLR fibroblasts, dose response, cell-based, alamar blue fluorescence, cherrypicked samples (AID 2631).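 Further: confirmatory dose-response assay in RAS-dependent BJ fibroblasts engineered with TERT, LT and ST, with cytotoxicity read by fluorescence.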 It is filed as functional. To be noted: Homo sapiens. (The colour change of resazurin is a common sign of viable cells or microbes.)
For test [14], the target named is T1, Type-1 angiotensin II receptor (Homo sapiens, UniProt P30556).
T1 sequence (P30556 whole entry): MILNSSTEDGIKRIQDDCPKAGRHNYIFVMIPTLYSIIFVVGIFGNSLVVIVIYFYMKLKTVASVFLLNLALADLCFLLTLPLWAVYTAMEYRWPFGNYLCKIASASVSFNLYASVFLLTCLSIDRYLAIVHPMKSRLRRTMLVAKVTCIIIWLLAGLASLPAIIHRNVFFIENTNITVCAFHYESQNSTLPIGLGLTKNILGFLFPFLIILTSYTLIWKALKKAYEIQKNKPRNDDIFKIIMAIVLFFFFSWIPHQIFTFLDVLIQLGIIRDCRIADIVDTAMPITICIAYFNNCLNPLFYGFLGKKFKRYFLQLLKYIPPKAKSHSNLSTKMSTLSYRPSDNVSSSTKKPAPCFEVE
Kind of test: AT1 receptor antagonists, dose response, selectivity assay for APJ receptor antagonist project, cell-based, uHTS hits (AID 463214).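 Further: antagonist potency against angiotensin II stimulated AT1 response.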 It is filed as functional.

The subject of test [15] is BJ. Kind of test: cytotoxicity toward BJ-TERT-LT-ST fibroblasts, dose response, cell-based, RAS-independent, luminescence (AID 1935).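 Further: BJ fibroblasts immortalized with TERT plus LT and ST oncogenes.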 The class given is functional. To be noted: Homo sapiens.
In test [16] the test system is BJ. Kind of test: cells. The class given is functional, cell-based. To be noted: Homo sapiens.
In test [17] the test system is Escherichia coli. Kind of test: microbe, parasite or virus in culture.
The nature of test [18]: cytotoxicity toward DRD oncogenic fibroblasts, dose response, cell-based, non-viral oncogenic, luminescence (AID 1934). The class given is functional. To be noted: Homo sapiens.
The test system of a further test is Vero. Kind of test: host cell cytotoxicity of antiviral hits, dose response, cytotoxicity control for West Nile virus antiviral project, secondary assay (AID 1650). The class given is functional. To be noted: Chlorocebus sabaeus.
A short description of test [19]: Luminescence-based dose response cell-based high throughput screening assay for cytotoxic compounds using the IEC-6 intestinal epithelial cell line. [Related pubchem assays: 1858 (Summary AID.), 1825 (Counterscreen.), 1907 (Confirmation screen.)]. It is filed as functional.
The target in another test is Beta-galactosidase (Escherichia coli, UniProt Q8VNN2). In words: PubChem AID 485352. It is filed as functional.
Test [20] can be described thus: microbe, parasite or virus in culture. It is filed as functional. To be noted: Mycobacterium tuberculosis.
Test [21] relates to Escherichia coli. Kind of test: microbe, parasite or virus in culture. The source holds these as a separate data set.
The test system of test [22] is BJ. Kind of test: cytotoxicity toward BJ-TERT fibroblasts, dose response, cell-based, RAS-independent, luminescence (AID 1933). It is filed as functional. Particulars: Homo sapiens.
Test [23] concerns the target Heat shock protein HSP 90-alpha (Homo sapiens, UniProt P07900). It is filed as functional, organism-based.
The nature of test [24]: A High Throughput Confirmatory Assay used to Identify Novel Compounds that Inhibit Mycobacterium Tuberculosis in the absence of Glycerol. It is filed as functional.
The subject of a further test is H4. In words: Luminescence Cell-Based Dose Response HTS to Identify Activators of 5'UTR Stem-Loop Driven Prion Protein mRNA Translation in H4 Neuroglioblastoma Cells. [Related pubchem assays: 1829 (Project Summary), 1814 (Primary HTS)]. It is filed as functional. To be noted: Homo sapiens.
The nature of test [25]: Luminescence Cell-Based Dose Response to Identify Activators of 5'UTR Stem-Loop Driven Prion Protein mRNA Translation in H4-C Neuroglioblastoma Cells. [Related pubchem assays: 1829 (Project Summary), 1814 (Primary HTS)]. The class given is functional.
Test [26] in a line: Luminescence Cell-Based Dose Response to Identify Activators of Luciferase Translation or Activity in H4-C Neuroglioblastoma Cells. [Related pubchem assays: 1829 (Project Summary), 1814 (Primary HTS)]. It is filed as functional.
A short description of test [27]: Luminescence Cell-Based Dose Confirmation to Identify Activators of 5'UTR Stem-Loop Driven Alpha-Synuclein mRNA Translation in H4 Neuroglioblastoma Cells. [Related pubchem assays: 1829 (Project Summary), 1814 (Primary HTS)]. The class given is functional.
Test [28] in a line: Luminescence Cell-Based Dose Response HTS to Identify Activators of Luciferase Translation or Activity in H4 […] Cells. [Related pubchem assays: 1829 (Project Summary), 1814 (Primary HTS)]. It is filed as functional.
A short description of test [29]: M. tuberculosis H37Rv growth inhibitors, H37Rv strain (AID 1626). It is filed as functional.
For test [30], the target named is Serine/threonine-protein phosphatase (Homo sapiens, UniProt Q9BPW0). Kind of test: PP5 phosphatase inhibitors, dose response, biochemical, fluorescence (AID 2395).
Test [31] deals with Serine/threonine-protein phosphatase PP1-alpha catalytic subunit (Homo sapiens, UniProt P62136). In words: PP1 phosphatase inhibitors, dose response, biochemical, fluorescence (AID 2394).

Calls of active or inactive are those of the source.

Chain of Induced myeloid leukemia cell differentiation protein Mcl-1 (Q07820 whole entry): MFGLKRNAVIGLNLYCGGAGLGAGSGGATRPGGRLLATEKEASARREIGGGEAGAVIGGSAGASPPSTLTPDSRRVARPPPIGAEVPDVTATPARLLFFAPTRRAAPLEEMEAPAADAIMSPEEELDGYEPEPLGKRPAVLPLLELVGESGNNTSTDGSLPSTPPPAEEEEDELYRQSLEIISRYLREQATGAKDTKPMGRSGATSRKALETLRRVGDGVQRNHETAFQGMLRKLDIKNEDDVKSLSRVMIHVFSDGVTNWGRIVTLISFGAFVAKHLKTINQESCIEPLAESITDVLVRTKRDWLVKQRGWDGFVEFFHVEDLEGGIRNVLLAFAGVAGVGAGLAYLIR
Chain of Nuclear receptor subfamily 5 group A member 2 (O00482 whole entry): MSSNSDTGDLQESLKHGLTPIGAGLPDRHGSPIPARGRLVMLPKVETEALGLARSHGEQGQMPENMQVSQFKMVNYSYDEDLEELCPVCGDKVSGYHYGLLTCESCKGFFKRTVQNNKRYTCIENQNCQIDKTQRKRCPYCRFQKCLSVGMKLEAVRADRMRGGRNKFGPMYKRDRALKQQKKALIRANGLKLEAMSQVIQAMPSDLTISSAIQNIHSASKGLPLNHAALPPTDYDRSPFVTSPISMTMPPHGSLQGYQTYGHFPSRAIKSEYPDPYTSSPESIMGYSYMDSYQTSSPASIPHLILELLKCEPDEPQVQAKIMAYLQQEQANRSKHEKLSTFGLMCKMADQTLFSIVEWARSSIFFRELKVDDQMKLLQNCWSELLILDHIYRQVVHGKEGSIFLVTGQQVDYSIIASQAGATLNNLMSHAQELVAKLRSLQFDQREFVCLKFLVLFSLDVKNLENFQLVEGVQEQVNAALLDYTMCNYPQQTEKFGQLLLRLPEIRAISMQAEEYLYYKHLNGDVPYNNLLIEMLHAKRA
Chain of Bcl-2-like protein 1 (Q07817 whole entry): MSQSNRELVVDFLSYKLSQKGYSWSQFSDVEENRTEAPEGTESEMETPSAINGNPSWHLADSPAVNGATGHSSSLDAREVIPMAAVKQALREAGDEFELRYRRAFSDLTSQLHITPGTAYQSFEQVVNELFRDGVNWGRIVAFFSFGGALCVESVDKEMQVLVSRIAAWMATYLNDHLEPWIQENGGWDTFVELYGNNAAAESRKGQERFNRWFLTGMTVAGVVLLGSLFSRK
Chain of Beta-galactosidase (Q8VNN2 whole entry): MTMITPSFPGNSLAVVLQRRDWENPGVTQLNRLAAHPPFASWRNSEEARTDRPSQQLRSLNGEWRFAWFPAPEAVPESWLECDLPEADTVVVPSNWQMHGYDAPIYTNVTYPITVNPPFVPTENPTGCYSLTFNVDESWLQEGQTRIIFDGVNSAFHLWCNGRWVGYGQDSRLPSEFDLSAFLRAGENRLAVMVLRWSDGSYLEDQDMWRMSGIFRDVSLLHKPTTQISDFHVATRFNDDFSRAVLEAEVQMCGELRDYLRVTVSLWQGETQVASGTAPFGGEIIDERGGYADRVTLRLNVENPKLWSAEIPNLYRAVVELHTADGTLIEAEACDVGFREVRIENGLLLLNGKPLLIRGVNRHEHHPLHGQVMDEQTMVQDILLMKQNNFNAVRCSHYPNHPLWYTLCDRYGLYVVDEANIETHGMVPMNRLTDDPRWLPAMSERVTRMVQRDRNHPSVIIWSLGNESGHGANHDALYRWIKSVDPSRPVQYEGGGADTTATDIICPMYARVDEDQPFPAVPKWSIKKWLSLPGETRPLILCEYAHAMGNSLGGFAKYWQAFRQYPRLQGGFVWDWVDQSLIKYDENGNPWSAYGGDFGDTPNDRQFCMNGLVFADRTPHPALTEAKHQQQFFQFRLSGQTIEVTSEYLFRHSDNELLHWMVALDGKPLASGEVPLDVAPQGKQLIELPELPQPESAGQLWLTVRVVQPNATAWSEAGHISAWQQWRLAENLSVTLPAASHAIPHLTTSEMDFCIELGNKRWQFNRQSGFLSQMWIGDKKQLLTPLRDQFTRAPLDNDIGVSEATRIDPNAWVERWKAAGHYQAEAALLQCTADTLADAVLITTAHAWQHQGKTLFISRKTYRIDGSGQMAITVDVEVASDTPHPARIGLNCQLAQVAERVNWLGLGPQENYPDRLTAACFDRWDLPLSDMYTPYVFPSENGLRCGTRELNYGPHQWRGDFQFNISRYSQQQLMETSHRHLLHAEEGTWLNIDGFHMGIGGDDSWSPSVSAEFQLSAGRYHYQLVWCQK
Chain of Serine/threonine-protein phosphatase (Q9BPW0 whole entry): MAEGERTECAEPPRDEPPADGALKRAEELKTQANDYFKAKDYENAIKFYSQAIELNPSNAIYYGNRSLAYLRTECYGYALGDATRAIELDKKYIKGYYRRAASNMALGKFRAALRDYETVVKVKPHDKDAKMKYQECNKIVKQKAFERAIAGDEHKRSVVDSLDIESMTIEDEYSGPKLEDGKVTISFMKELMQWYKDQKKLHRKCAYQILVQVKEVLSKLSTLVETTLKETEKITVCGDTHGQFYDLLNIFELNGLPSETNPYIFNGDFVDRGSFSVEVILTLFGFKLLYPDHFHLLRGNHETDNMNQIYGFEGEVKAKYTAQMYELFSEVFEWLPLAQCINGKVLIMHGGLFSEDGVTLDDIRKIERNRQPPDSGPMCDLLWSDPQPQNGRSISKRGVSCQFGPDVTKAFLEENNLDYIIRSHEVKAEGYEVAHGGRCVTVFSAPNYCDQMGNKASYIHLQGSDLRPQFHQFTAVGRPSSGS
Chain of Steroidogenic factor 1 (Q13285 whole entry): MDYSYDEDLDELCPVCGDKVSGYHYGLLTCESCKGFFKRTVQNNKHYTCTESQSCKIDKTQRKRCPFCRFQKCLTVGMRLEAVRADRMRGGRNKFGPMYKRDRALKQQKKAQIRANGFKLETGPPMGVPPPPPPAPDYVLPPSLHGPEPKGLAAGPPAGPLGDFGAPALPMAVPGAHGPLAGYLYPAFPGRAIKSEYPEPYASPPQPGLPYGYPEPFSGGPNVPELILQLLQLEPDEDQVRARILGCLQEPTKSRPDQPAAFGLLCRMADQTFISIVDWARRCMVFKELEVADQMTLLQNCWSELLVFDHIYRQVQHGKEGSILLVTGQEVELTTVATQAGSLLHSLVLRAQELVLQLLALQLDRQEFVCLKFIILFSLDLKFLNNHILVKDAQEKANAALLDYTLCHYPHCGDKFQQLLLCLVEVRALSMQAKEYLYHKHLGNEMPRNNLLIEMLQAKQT
Chain of Serine/threonine-protein phosphatase PP1-alpha catalytic subunit (P62136 whole entry): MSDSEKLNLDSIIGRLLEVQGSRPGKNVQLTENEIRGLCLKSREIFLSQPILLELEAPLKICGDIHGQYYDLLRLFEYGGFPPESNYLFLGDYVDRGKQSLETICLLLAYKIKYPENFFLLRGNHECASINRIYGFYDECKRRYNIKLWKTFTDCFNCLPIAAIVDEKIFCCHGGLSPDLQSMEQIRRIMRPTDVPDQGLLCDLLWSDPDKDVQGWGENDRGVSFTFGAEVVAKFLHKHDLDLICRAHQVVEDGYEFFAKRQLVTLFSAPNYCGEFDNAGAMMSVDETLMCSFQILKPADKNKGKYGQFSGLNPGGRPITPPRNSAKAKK
Chain of Latent membrane protein 1 (P03230 whole entry): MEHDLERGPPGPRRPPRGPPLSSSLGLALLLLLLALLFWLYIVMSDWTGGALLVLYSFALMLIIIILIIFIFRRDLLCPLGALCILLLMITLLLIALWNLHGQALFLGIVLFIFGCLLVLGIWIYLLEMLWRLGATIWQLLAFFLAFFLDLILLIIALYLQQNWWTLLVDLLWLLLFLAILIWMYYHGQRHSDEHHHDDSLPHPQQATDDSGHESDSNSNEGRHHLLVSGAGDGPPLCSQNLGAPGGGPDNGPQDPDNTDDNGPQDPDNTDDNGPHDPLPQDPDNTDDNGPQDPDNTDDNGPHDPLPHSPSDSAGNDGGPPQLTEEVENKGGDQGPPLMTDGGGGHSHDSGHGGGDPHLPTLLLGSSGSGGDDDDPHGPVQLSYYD

As for `O=C(COc1ccccc1-c1ccccc1)NCc1ccco1`, the EC50 in test [1], in [2] and in test [3] was > 79.4 µM (not active) each time.
For `CC1CCCN(c2cc(N(C)CCO)c([N+](=O)[O-])c3nonc23)C1` (stereo not drawn), the EC50 (in general, the concentration needed to bring the measured effect to its halfway point) in test [4] is > 100 µM (active). For the same compound, the IC50 (usually the concentration needed to halve the response being measured) was 7.01 µM (active) on Steroidogenic factor 1, 35.9 µM (inactive) in test [5] and 12.3 µM (inactive) in test [6].
For the compound `Nc1ccc(C(=O)N/N=C\c2cc(N=Nc3cccc4ccccc34)ccc2O)cc1`, the EC50 is > 350 µM (not active) in “cells [7]”, 1.12 µM (active) in test [10], 7.62 µM (active) in the test “cells [11]” and 7.41 µM (active) in test [12]. In addition, the IC50 in test [8] is 6.83 µM (active); against Bcl-2-like protein 1 it was > 109 µM (not active). Further, the AC50 – broadly, the concentration at which the activity in the assay is half-maximal – is 30.2 µM (active) in test [9] and 11.1 µM (active) with HEK293.
With `Cc1ccc(C(=O)Sc2cccccc2=O)cc1`, the EC50 was 0.075 µM (active) with BJ [13]; 54.9 µM (active) in the test on BJ [15]; 26 µM (active) in the test on BJ [16]; 25.5 µM (active) in test [18]; > 40 µM (inactive) at Beta-galactosidase; 0.659 µM (inconclusive) in the test with BJ [22]. For the same compound, the IC50 in test [14] was < 1.25 µM (active); in [19] it was 0.848 µM (active). Moreover, the AC50 with Escherichia coli [17] is 17 µM (active); with Escherichia coli [21], 12.7 µM (active); in test [23] it was 6.06 µM (active). Also, the figures for the CC50 (with Vero; in test [20]) were 48.4 µM (active) and 11.5 µM (active), respectively.
For the compound `Cc1ccc(-c2noc(=O)n2CC(=O)c2ccc(Cl)cc2)cc1`, the IC50 in test [24] was > 50 µM (active). Further, the CC50 in test [20] is > 40 µM (active).
As for `CC(=O)Nc1ccc2c(c1)ncn2-c1ccccc1`, the EC50 in the test with H4 was > 120 µM (not active); in [25], 0.608 µM (active); in [26], 0.46 µM (active); in [27] it was 0.218 µM (active); in [28] it was < 0.1 µM (inconclusive).
`O=C(CSC1=NCCS1)Nc1ccc2ccccc2c1`: the IC50 in test [29] was > 100 µM (active).
Consider `COCCNC(=O)c1c(N)n(CCC(C)C)c2nc3ccccc3nc12`, for which the IC50 in test [30] is 13.4 µM (not active); in test [31] it was 56.5 µM (not active).

The values are drawn from ChEMBL document CHEMBL1201862, “PubChem BioAssay data set” (2004).
